Source: ChEMBL document CHEMBL1671662, “In vitro activities of telavancin and six comparator agents against anaerobic bacterial isolates” (2009)
Converted amounts (≈) assume the structure as drawn.

Key:
Assay type in all cases: functional
[1] = test system: Prevotella nigrescens; experiment: Antibacterial activity against Prevotella nigrescens by CLSI M11-A6 agar dilution method
[2] = test system: Prevotella corporis; experiment: Antibacterial activity against Prevotella corporis by CLSI M11-A6 agar dilution method
[3] = test system: Ruminococcus sp.; experiment: Antibacterial activity against Ruminococcus sp. by CLSI M11-A6 agar dilution method
[4] = test system: Parabacteroides distasonis; experiment: Antibacterial activity against Parabacteroides distasonis by CLSI M11-A6 agar dilution method
[5] = test system: Bifidobacterium pseudolongum; experiment: Antibacterial activity against Bifidobacterium pseudolongum by CLSI M11-A6 agar dilution method
[6] = test system: Hoylesella loescheii; experiment: Antibacterial activity against Prevotella loescheii by CLSI M11-A6 agar dilution method
[7] = test system: Prevotella oris; experiment: Antibacterial activity against Prevotella oris by CLSI M11-A6 agar dilution method; details: Segatella oris
[8] = test system: Blautia luti; experiment: Antibacterial activity against Ruminococcus luti by CLSI M11-A6 agar dilution method
[9] = test system: Clostridium disporicum; experiment: Antibacterial activity against Clostridium disporicum by CLSI M11-A6 agar dilution method
[10] = test system: Clostridium glycolicum; experiment: Antibacterial activity against Clostridium glycolicum by CLSI M11-A6 agar dilution method; details: Terrisporobacter glycolicus
[11] = test system: Ruminococcus torques; experiment: Antibacterial activity against Ruminococcus torques by CLSI M11-A6 agar dilution method; details: Mediterraneibacter torques
[12] = test system: Anaerococcus prevotii; experiment: Antibacterial activity against Anaerococcus prevotii by CLSI M11-A6 agar dilution method
[13] = test system: Ruminococcus lactaris; experiment: Antibacterial activity against Ruminococcus lactaris by CLSI M11-A6 agar dilution method
[14] = test system: Clostridium bartlettii; experiment: Antibacterial activity against Clostridium bartlettii by CLSI M11-A6 agar dilution method; details: Intestinibacter bartlettii
[15] = test system: Enterocloster clostridioformis; experiment: Antibacterial activity against Clostridium clostridioforme by CLSI M11-A6 agar dilution method
[16] = test system: Ruminococcus gnavus; experiment: Antibacterial activity against Ruminococcus gnavus by CLSI M11-A6 agar dilution method; details: Mediterraneibacter gnavus
[17] = test system: Bifidobacterium bifidum; experiment: Antibacterial activity against Bifidobacterium bifidum by CLSI M11-A6 agar dilution method
[18] = test system: Phocaeicola vulgatus; experiment: Antibacterial activity against Bacteroides vulgatus by CLSI M11-A6 agar dilution method
[19] = test system: Prevotella bivia; experiment: Antibacterial activity against Prevotella bivia by CLSI M11-A6 agar dilution method
[20] = test system: Streptococcus anginosus; experiment: Antibacterial activity against Streptococcus anginosus by CLSI M11-A6 agar dilution method
[21] = test system: Clostridium bolteae; experiment: Antibacterial activity against Clostridium bolteae by CLSI M11-A6 agar dilution method; details: Enterocloster bolteae
[22] = test system: Fusobacterium mortiferum; experiment: Antibacterial activity against Fusobacterium mortiferum by CLSI M11-A6 agar dilution method
[23] = test system: Clostridium sporosphaeroides; experiment: Antibacterial activity against Clostridium sporosphaeroides by CLSI M11-A6 agar dilution method; details: Faecalispora sporosphaeroides
[24] = test system: Prevotella intermedia; experiment: Antibacterial activity against Prevotella P intermedia by CLSI M11-A6 agar dilution method
[25] = test system: Actinomyces naeslundii; experiment: Antibacterial activity against Actinomyces naeslundii by CLSI M11-A6 agar dilution method
[26] = test system: Paraclostridium bifermentans; experiment: Antibacterial activity against Clostridium bifermentans by CLSI M11-A6 agar dilution method
[27] = test system: Paeniclostridium sordellii; experiment: Antibacterial activity against Clostridium sordellii by CLSI M11-A6 agar dilution method; details: Paraclostridium sordellii
[28] = test system: Clostridium beijerinckii; experiment: Antibacterial activity against Clostridium beijerinckii by CLSI M11-A6 agar dilution method
[29] = test system: Parvimonas micra; experiment: Antibacterial activity against Peptostreptococcus micros by CLSI M11-A6 agar dilution method
[30] = test system: Thomasclavelia ramosa; experiment: Antibacterial activity against Clostridium ramosum by CLSI M11-A6 agar dilution method
[31] = test system: Bifidobacterium dentium; experiment: Antibacterial activity against Bifidobacterium dentium by CLSI M11-A6 agar dilution method
[32] = test system: Clostridium; experiment: Antibacterial activity against Clostridium hypermegas by CLSI M11-A6 agar dilution method
[33] = test system: Bacteroides thetaiotaomicron; experiment: Antibacterial activity against Bacteroides thetaiotaomicron by CLSI M11-A6 agar dilution method
[34] = test system: Prevotella disiens; experiment: Antibacterial activity against Prevotella P disiens by CLSI M11-A6 agar dilution method
[35] = test system: Holdemania filiformis; experiment: Antibacterial activity against Holdemania filiformis by CLSI M11-A6 agar dilution method
[36] = test system: [Clostridium] innocuum; experiment: Antibacterial activity against Clostridium innocuum by CLSI M11-A6 agar dilution method
[37] = test system: Clostridium paraputrificum; experiment: Antibacterial activity against Clostridium paraputrificum by CLSI M11-A6 agar dilution method
[38] = test system: Ruminococcus albus; experiment: Antibacterial activity against Ruminococcus albus by CLSI M11-A6 agar dilution method; details: Hominimerdicola alba
[39] = test system: Clostridium subterminale; experiment: Antibacterial activity against Clostridium subterminale by CLSI M11-A6 agar dilution method

## CC(=O)NC[C@H]1CN(c2ccc(N3CCOCC3)c(F)c2)C(=O)O1 [LINEZOLID]
[1]
  MIC50: 2 µg/mL (≈ 5.93 µM)
  MIC90: 2 µg/mL (≈ 5.93 µM)
[2]
  MIC50: 2 µg/mL (≈ 5.93 µM)
  MIC90: 2 µg/mL (≈ 5.93 µM)
[3]
  MIC50: 1 µg/mL (≈ 2.96 µM)
  MIC90: 2 µg/mL (≈ 5.93 µM)
[4]
  MIC50: 4 µg/mL (≈ 11.9 µM)
  MIC90: 4 µg/mL (≈ 11.9 µM)
[5]
  MIC50: 1 µg/mL (≈ 2.96 µM)
  MIC90: 8 µg/mL (≈ 23.7 µM)
[6]
  MIC50: 2 µg/mL (≈ 5.93 µM)
  MIC90: 2 µg/mL (≈ 5.93 µM)
[7]
  MIC50: 2 µg/mL (≈ 5.93 µM)
  MIC90: 2 µg/mL (≈ 5.93 µM)
[8]
  MIC50: 2 µg/mL (≈ 5.93 µM)
  MIC90: 4 µg/mL (≈ 11.9 µM)
[9]
  MIC50: 2 µg/mL (≈ 5.93 µM)
  MIC90: 4 µg/mL (≈ 11.9 µM)
[10]
  MIC50: 2 µg/mL (≈ 5.93 µM)
  MIC90: 4 µg/mL (≈ 11.9 µM)
[11]
  MIC50: 2 µg/mL (≈ 5.93 µM)
  MIC90: 4 µg/mL (≈ 11.9 µM)
[12]
  MIC50: 1 µg/mL (≈ 2.96 µM)
  MIC90: 2 µg/mL (≈ 5.93 µM)
[13]
  MIC50: 2 µg/mL (≈ 5.93 µM)
  MIC90: 4 µg/mL (≈ 11.9 µM)
[14]
  MIC50: 2 µg/mL (≈ 5.93 µM)
  MIC90: 4 µg/mL (≈ 11.9 µM)
[15]
  MIC50: 4 µg/mL (≈ 11.9 µM)
  MIC90: 4 µg/mL (≈ 11.9 µM)
[16]
  MIC50: 2 µg/mL (≈ 5.93 µM)
  MIC90: 2 µg/mL (≈ 5.93 µM)
[17]
  MIC50: 1 µg/mL (≈ 2.96 µM)
  MIC90: 8 µg/mL (≈ 23.7 µM)
[18]
  MIC50: 2 µg/mL (≈ 5.93 µM)
  MIC90: 4 µg/mL (≈ 11.9 µM)
[19]
  MIC50: 2 µg/mL (≈ 5.93 µM)
  MIC90: 2 µg/mL (≈ 5.93 µM)
[20]
  MIC50: 2 µg/mL (≈ 5.93 µM)
  MIC90: 4 µg/mL (≈ 11.9 µM)
[21]
  MIC50: 4 µg/mL (≈ 11.9 µM)
  MIC90: 4 µg/mL (≈ 11.9 µM)
[22]
  MIC50: 1 µg/mL (≈ 2.96 µM)
  MIC90: 1 µg/mL (≈ 2.96 µM)
[23]
  MIC50: 2 µg/mL (≈ 5.93 µM)
  MIC90: 4 µg/mL (≈ 11.9 µM)
[24]
  MIC50: 2 µg/mL (≈ 5.93 µM)
  MIC90: 2 µg/mL (≈ 5.93 µM)
[25]
  MIC50: 1 µg/mL (≈ 2.96 µM)
  MIC90: 8 µg/mL (≈ 23.7 µM)
[26]
  MIC50: 2 µg/mL (≈ 5.93 µM)
  MIC90: 4 µg/mL (≈ 11.9 µM)
[27]
  MIC50: 2 µg/mL (≈ 5.93 µM)
  MIC90: 4 µg/mL (≈ 11.9 µM)
[28]
  MIC50: 2 µg/mL (≈ 5.93 µM)
  MIC90: 4 µg/mL (≈ 11.9 µM)
[29]
  MIC50: 1 µg/mL (≈ 2.96 µM)
  MIC90: 2 µg/mL (≈ 5.93 µM)
[30]
  MIC50: 8 µg/mL (≈ 23.7 µM)
  MIC90: 8 µg/mL (≈ 23.7 µM)
[31]
  MIC50: 1 µg/mL (≈ 2.96 µM)
  MIC90: 8 µg/mL (≈ 23.7 µM)
[32]
  MIC50: 2 µg/mL (≈ 5.93 µM)
  MIC90: 4 µg/mL (≈ 11.9 µM)
[33]
  MIC50: 4 µg/mL (≈ 11.9 µM)
  MIC90: 8 µg/mL (≈ 23.7 µM)
[34]
  MIC50: 2 µg/mL (≈ 5.93 µM)
  MIC90: 2 µg/mL (≈ 5.93 µM)
[35]
  MIC50: 1 µg/mL (≈ 2.96 µM)
  MIC90: 8 µg/mL (≈ 23.7 µM)
[36]
  MIC: 2 µg/mL (≈ 5.93 µM)
  MIC50: 2 µg/mL (≈ 5.93 µM)
  MIC90: 4 µg/mL (≈ 11.9 µM)
[37]
  MIC50: 2 µg/mL (≈ 5.93 µM)
  MIC90: 4 µg/mL (≈ 11.9 µM)
[38]
  MIC50: 2 µg/mL (≈ 5.93 µM)
  MIC90: 4 µg/mL (≈ 11.9 µM)
[39]
  MIC50: 4 µg/mL (≈ 11.9 µM)
  MIC90: 4 µg/mL (≈ 11.9 µM)
